# Key:
# NSCs = test: Apoptosis of NSCs by DAPI and TUNEL staining; format: cell-based, rat; details: 20 μM Aβ25-35 + PEP1 up to 100 μM, 48 hours; p<0.05
# Method: NSCs were placed onto collagen-coated glass coverslips with a diameter of 13 mm, and then treated in the manner described below: 1) […]; 2) treated with only 20 μM Aβ25-30; or 3) treated with 20 μM Aβ25-30 and PEP1 at each concentration (1, 10, 50, or 100 μM) for 48 hours.
# The cells were washed with PBS and fixed with 4% paraformaldehyde for 20 minutes.
# TUNEL staining is a method used to confirm apoptosis. To observe an intact, condensed or fragmented nucleus, the cells that have been stained with TUNEL were treated with 100 μg/ml DAPI for 20 minutes to stain the nucleus, and then mounted on a glass slide to which a DAPI-mixed mounting medium was applied.
# The cells were observed under a fluorescence microscope and observed at excitation fluorescence wavelengths corresponding to DAPI and TUNEL.
# [1] = system: AD transgenic mice (3XTg-AD); test: Y-maze test; format: in vivo
# Method: (§1) To test the efficacy of PEP1 on AD, AD transgenic mice (3XTg-AD) were purchased from Jackson Laboratory. Genetic characteristics of the transgenic mice are as follows: B6; 129-Psen1tm1Mpm Tg(APPSwe, tauP301L)1Lfa/Mmjax. […] One week after mice were confirmed as pregnant, new mice were delivered and weaned for 3 weeks. Two weeks later, mature mice were obtained.
# (§2) During the preliminary breeding and the entire period of the experiment, a temperature was maintained at 23±2° C. and a relative humidity was maintained at 60±10%, and then the mice were raised under a 12-hour dark/light cycle. Experimental animals were divided into five groups, and each group included 10 animals. The divided experimental groups are as follows. […]
# (§3) The PEP1, physiological saline, donepezil and scramble peptide were subcutaneously injected at each concentration three times a week for two months from the age of 12 months, and then two months after the injection, cognitive/memory behavior tests (passive avoidance test and Y maze test) were performed to examine a degree of improvement in cognitive function and memory function. After the brain was extracted to separate the hippocampus, the amounts of amyloid beta in the hippocampus and the whole brain, and the amounts of an amyloid beta oligomer and NFT generated by tau hyperphosphorylation were determined by western blotting and immunostaining. […]
# DCX = DCX expression in 3XTg-AD mice (western blotting, immunostaining); format: in vivo; details: hippocampus and whole brain; s.c. three times a week for two months; vs control and Donepezil, same amount
# Method: as §1, §2, §3
sequence,measurement,setting,value
"EARPALLTSRLRFIPK (homo sapiens) [PEP1, hTERT-derived peptide consisting of 16 amino acids, telomerase location [611-626]]",degree of apoptosis of NSCs,NSCs,significantly decreased
same,behavioral judgment (Y-maze test),"[1]; 3XTg-AD mice, treated from age 12 months, vs control and Donepezil",excellent behavioral judgment
same,"ability to select a new path (spontaneous alteration (%)), Y-maze test","[1]; severe AD models, 20-month-old or older 3XTg-AD mice, PEP1 1 mg/kg s.c., vs physiological saline",increased
same,DCX,DCX,increased

# Source: patent US20180318383A1, “PEPTIDE HAVING NEURONAL LOSS PREVENTION AND REGENERATION EFFECTS, AND COMPOSITION CONTAINING SAME” (GEMVAX & KAEL CO., LTD., priority 2015, published 2018)
